The values below come from article PMC6934700, “Structure-Guided Design of a Fluorescent Probe for the Visualization of FtsZ in Clinically Important Gram-Positive and Gram-Negative Bacterial Pathogens” (Scientific Reports, 2019).

Where two headings read alike, the source gives them in different places.

As a reminder, the Kd is the free concentration of one partner at which half of the binding sites on the other are occupied at equilibrium, for simple one-to-one binding.

One assay concerns the target T1, S. agalactiae (SagFtsZ) (Streptococcus agalactiae, UniProt Q8E183).
T1 sequence (Q8E183 1-426): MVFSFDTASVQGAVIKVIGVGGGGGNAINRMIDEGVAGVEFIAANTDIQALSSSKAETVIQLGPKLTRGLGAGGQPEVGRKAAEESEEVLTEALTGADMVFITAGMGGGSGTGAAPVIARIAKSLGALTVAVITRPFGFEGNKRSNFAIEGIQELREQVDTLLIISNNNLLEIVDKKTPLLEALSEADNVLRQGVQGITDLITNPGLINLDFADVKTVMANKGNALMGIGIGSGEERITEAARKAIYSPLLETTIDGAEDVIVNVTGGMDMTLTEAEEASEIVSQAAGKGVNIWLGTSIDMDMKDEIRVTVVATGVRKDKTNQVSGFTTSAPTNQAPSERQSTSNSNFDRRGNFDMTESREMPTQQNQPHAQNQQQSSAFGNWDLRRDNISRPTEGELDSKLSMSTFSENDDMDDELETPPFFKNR
In words: Fluorescence anisotropy binding of BOFP to SagFtsZ. The settings on record: for Kd: 50 mM Tris-HCl (pH 7.6), 50 mM KCl, 0.1 µM BOFP. The protocol:
(§1) Fluorescence anisotropy experiments were performed using an AVIV model ATF105 spectrofluorometer at 15, 25, or 37 °C. In these experiments, bandwidths were set to 4 nm in both the excitation and emission directions, with the excitation and emission wavelengths being set at 488 nm and 510 nm, respectively. BOFP (0.1 µM) was titrated with increasing concentrations (ranging from 0 to 12 µM) of FtsZ in 120 µL of buffer containing 50 mM Tris-HCl (pH 7.6) and 50 mM KCl. After each protein addition, the samples were equilibrated for 3 minutes, whereupon the fluorescence anisotropy was measured.
(§2) In this equation, r0 is the anisotropy of the protein-free compound, r∞ is the anisotropy of the compound in the presence of an infinite concentration of FtsZ, [C]tot is the total concentration of the compound, and [P]tot is the total concentration of protein with each addition. These analyses yielded the equilibrium dissociation constant (Kd) for each binding reaction.
(§3) The binding free energy (ΔG) at temperature T was derived from the corresponding Kd value determined at T using the following relationship:2 ΔG=−RTln(1/Kd)
(§4) The binding enthalpy (ΔH) and entropy (ΔS) were derived from linear fits of the ln(1/Kd) vs. 1/T plots shown in Figs. 3f and 5e using the following relationship:3 ln(1/Kd)=−ΔH/R(1/T)+ΔS/R

Assay [1] has as its system FtsZ in S. pneumoniae ATCC 49619 cells. In words: FtsZ visualization by fluorescence microscopy in live cells. The format is cell-based, Streptococcus pneumoniae. The settings on record: 1 µg/mL for 5 minutes. The protocol: All differential interference contrast (DIC) and fluorescence microscopy experiments were conducted using an Olympus BX50 microscope equipped with an X-cite Exacte 200 W mercury lamp, a 100× Olympus UPLSAPO oil immersion objective (1.40 aperture), as well as both Chroma ET-EGFP (FITC/Cy2) and ET mCherry, Texas Red filters. Images were captured using a QImaging Retiga R3 charge-coupled device (CCD) camera and the Ocular-Version 2.0 software package (QImaging).
For visualizing FtsZ in Gram-positive bacteria using BOFP, the bacterial cells were grown to log-phase in media suitable for each individual pathogen. Specifically, S. aureus NRS705 (MRSA) was grown in tryptic soy broth (TSB), E. faecalis ATCC 29212 and E. faecium ATCC 19434 were grown in lactobacilli MRS broth, S. agalactiae ATCC 12386 and S. pneumoniae ATCC 49619 were grown in TH broth, and S. pyogenes ATCC 19615 was grown in CAMH broth supplemented with 3% (v/v) LHB. For each Gram-positive bacterial strain, a total of 1 mL of cell culture was centrifuged at 15,000 × g for 1 minute and washed 2–3 times with 1 mL of PBS. After the final wash, the pelleted cells were resuspended in 500 µL of PBS containing 1 µg/mL of BOFP and incubated in the dark for 5 minutes at room temperature. The cells were then centrifuged at 15,000 × g for 1 minute, washed twice with 1 mL of PBS, and subsequently resuspended in 200 µL of PBS. […]

The target in another assay is T2, P. aeruginosa (PaFtsZ) (Pseudomonas aeruginosa, UniProt P47204).
T2 construct: 6xHis (C); made in house; host or cells: E. coli BLR (DE3), pET-22b(+)
T2 sequence (P47204 1-394): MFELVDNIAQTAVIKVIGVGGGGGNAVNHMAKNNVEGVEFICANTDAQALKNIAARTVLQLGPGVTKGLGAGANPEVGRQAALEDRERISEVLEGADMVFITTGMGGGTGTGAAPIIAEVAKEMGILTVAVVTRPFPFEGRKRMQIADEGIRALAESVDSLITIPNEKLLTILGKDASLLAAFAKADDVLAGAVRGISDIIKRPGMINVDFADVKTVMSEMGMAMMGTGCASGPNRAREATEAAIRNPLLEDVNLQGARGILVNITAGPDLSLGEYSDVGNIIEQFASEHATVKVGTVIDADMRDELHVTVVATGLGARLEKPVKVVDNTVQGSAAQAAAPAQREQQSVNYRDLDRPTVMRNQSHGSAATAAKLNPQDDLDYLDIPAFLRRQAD
Nature of the assay: Fluorescence anisotropy binding of BOFP to PaFtsZ. The note with it: for Kd: 50 mM Tris-HCl (pH 7.6), 50 mM KCl, 0.1 µM BOFP. On the procedure: as §1, §2, §3, §4
In comparative control experiments, the anisotropy of 0.1 µM BODIPY FL-COOH or BOFP alone or in the presence of SaFtsZ (10 µM), SpyFtsZ (10 µM), KpFtsZ (2 µM), or PaFtsZ (2 µM) was measured at 37 °C in the same buffer described above.

The mark [2] stands for this setting: from linear fit of ln(1/Kd) vs. 1/T.

As for `CC1=CC(C)=[N+]2C1=Cc1ccc(CCC(=O)OCC(Oc3ccc(F)c(C(N)=O)c3F)c3nc(-c4ccc(C(F)(F)F)cc4)c(Br)o3)n1[B-]2(F)F` (stereo not shown) [BOFP], the Kd on S. agalactiae (SagFtsZ) (15 °C, read-out: Kd - 15 °C) amounted to 620 ± 50 nM; on S. agalactiae (SagFtsZ) (25 °C, read-out: Kd - 25 °C) it was 1020 ± 90 nM; at S. agalactiae (SagFtsZ) (37 °C, read-out: Kd - 37 °C) it was 1310 ± 40 nM; on P. aeruginosa (PaFtsZ) (15 °C, read-out: Kd - 15 °C), 230 ± 20 nM; on P. aeruginosa (PaFtsZ) (25 °C, read-out: Kd - 25 °C), 360 ± 60 nM; at P. aeruginosa (PaFtsZ) (37 °C, read-out: Kd - 37 °C), 580 ± 60 nM. The ΔH was -6.6 ± 0.6 kcal/mol at S. agalactiae (SagFtsZ) (setting [2]) and -7.7 ± 0.2 kcal/mol at P. aeruginosa (PaFtsZ) (setting [2]). Further, the “Fluorescence staining / FtsZ labeling in live cells” value in assay [1] is reported as “bright bands of fluorescence staining are clearly visible at midcell”. Moreover, the ΔG on P. aeruginosa (PaFtsZ) (calculated at T = 310 K (37 °C) from Kd) is -8.8 ± 0.1 kcal/mol.
